For one data set, the system named is MCF-7 cells. Description: MTT cytotoxicity assay. In kind it is cell-based. To be noted: FIG. 3A. As for the experimental part:
Cells were seeded in 96 well-plates (Corning, 3599) with 10,000 cells/well. […] The cellular media was replaced with media of the appropriate concentration of materials and incubated for a further 24 hours. MTT reagent was then added in the culture medium, followed by incubation at 37° C. for 3 h and the resulting purple crystal solubilized in DMSO. The absorbance was measured on a microplate reader (SynergyMx) at 590 nm, with the measurements performed in at least triplicate.
In general terms: Tetrazolium dyes change colour on reduction, which living cells bring about.

Another data set deals with NIS. Kind of data set: NIS expression by flow cytometry. Type of data set: cell-based. To be noted: MCF-7 cells, tRA 1 μM. On the procedure:
In addition to MCF-7, MDA-MB-231 cells, which have a low expression of NIS, were analyzed as a comparison.
On the technique in general: In flow cytometry, cells or beads pass a laser one at a time.

The structures appear in SMILES notation.

Take `I` [iodide]: the toxicity of iodide result in the data set with MCF-7 cells is on record as “little toxicity”. Regarding `CC1=C(/C=C/C(C)=C/C=C/C(C)=C/C(=O)O)C(C)(C)CCC1` [tRA, Trans retinoic acid], the NIS expression entry with NIS is listed as “induced NIS expression”.
